Assay results taken from patent publication US11225481B2 (Centre national de la recherche scientifique, priority 2015, dated 2022).

Tests used:
c-Myc = experiment: Western blot of c-Myc in Jurkat cells; type: cell-based, human; conditions: 24 h, same range of concentration as EC50
Method: Non-treated Jurkat cells and Jurkat cells treated during 24 h with compound of the invention 26b, or DMSO were lysed in RIPA lysis buffer (Tris HCl pH=7.5 50 mM, NaCl 150 mM, Triton 1%, SDS 0.1%, sodium deoxycholate 1%) supplemented with protease inhibitor cocktail (P8340, Sigma-Aldrich) and 1 mM PhenylMethylSulfonyl Fluoride (Sigma-Aldrich). 75 μg of protein were loaded onto 10% acrylamide SDS/PAGE and then transferred to nitrocellulose Hybond C-extra membranes, […] (GE Healthcare). The membranes were saturated with 5% (wt/vol) skim milk in TBST [Tris-buffered saline/0.1% (vol/vol) Tween 20] 1 h at room temperature and incubated with anti-myc antibody (clone 9E10, sc40 Santa Cruz) at a 1:500 dilution in 0.5% (wt/vol) skimmed milk in TBST overnight at 4° C. Membranes were then washed with TBST, incubated with an HRP-conjugated anti-mouse secondary antibody (polyclonal goat anti mouse P0447, Pierce) at a 1:20,000 dilution in TBST 1 h at room temperature. […] Quantification was performed using ImageJ software.

BRD3(BD1) = target: T1, BRD3(BD1) (Homo sapiens, UniProt Q15059); experiment: HTRF bromodomain selectivity profile; type: binding; conditions: Table 3 selectivity profile
T1 construct: purchased BPS Bioscience
Method: (§1) Compounds were dispensed, with 200 nL per well (1% final DMSO), from a concentration stock of 1 mM in 100% DMSO and with serial DMSO dilutions, using a Mosquito Crystal pipetting robot platform (TTP labtech). […] All HTRF reagents were purchased from CisBio Bioassays and reconstituted according to the supplier protocols. For each assay 14.7 μL of mix 1 (protein+peptide) is added in the assay wells, containing previously dispensed inhibitors, according to the final concentration and buffer described in Table 4, using a Biomek NX MC pipetting robot (Beckman). Then, 5.1 μL of mix 2 (donnor+acceptor) is added. HTRF signals were measured, after a final incubation (overnight at room temperature), using a PHERAstar FS (BMG Labtech) with an excitation filter at 337 nm and fluorescence wavelength measurement at 620 and 665 nm, an integration delay of 60 μs and an integration time of 500 μs. Results were analyzed with a two-wavelengths signal ratio: […] Percentage of inhibition was calculated using the following equation: % inhibition=[(compound signal)−(min signal)]/[(max signal)−(min signal)]*100, where ‘max signal’ is the signal ratio with the compound vehicle alone (DMSO) and ‘min signal’ the signal ratio without peptide. For IC50 measurements, values were normalized and fitted with Prism (GraphPad software) using the following equation: […] Selectivity profiles of bromodomain inhibitors were performed as described in HTRF screen section. […] HTRF detection reagents (EPIgeneous™ Binding Domain kits) were purchased from Cisbio Bioassays and used according to supplier's protocol. GST tagged bromodomain proteins were purchased from BPS Bioscience and histone peptide from Anaspec. [table]

BRD3(BD2) = target: T2, BRD3(BD2) (Homo sapiens, UniProt Q15059); experiment: HTRF bromodomain selectivity profile; type: binding; conditions: Table 3 selectivity profile
T2 construct: purchased BPS Bioscience
Method: as §1

T2 sequence (Q15059 306-415 limits assumed): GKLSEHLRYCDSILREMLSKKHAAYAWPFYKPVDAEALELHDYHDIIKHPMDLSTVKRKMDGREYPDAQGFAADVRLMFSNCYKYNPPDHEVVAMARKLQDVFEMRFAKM
T1 sequence (Q15059 34-140 limits assumed): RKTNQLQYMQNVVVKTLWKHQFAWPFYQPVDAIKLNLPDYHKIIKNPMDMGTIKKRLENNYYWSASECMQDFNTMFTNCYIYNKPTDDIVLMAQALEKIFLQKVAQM

IC50 (BRD3(BD1)): 62 ± 7.8 µM
IC50 (BRD3(BD2)): > 100 µM
IC50 (μM) BRD3(BD2) (BRD3(BD2)): no detectable inhibition
SMILES: CCCCc1c(C)nc2nc(SCc3nc4c(c(=O)[nH]c(=O)n4CCCC)n3CC)nn2c1C [Compound 26b, 3-Butyl-8-(6-butyl-5,7-dimethyl-[1,2,4]triazolo[1,5-a]pyrimidin-2-ylsulfanylmethyl)-7-ethyl-3,7-dihydro-purine-2,6-dione]
c-Myc down regulation (c-Myc): down regulated c-Myc
